One assay has as its target Histamine H1 receptor (Cavia porcellus, UniProt P31389). The assay is described as follows: In vitro inhibition of histamine-induced contractions in guinea pig ileum. Format: functional, tissue-based.
Assay [1] is described as follows: In vivo for the inhibition of histamine-induced mortality in guinea pig. The following applies: Cavia porcellus. Format: functional.

Bounds are passed on as bounds.

Histamine H1 receptor, sequence (P31389 whole entry): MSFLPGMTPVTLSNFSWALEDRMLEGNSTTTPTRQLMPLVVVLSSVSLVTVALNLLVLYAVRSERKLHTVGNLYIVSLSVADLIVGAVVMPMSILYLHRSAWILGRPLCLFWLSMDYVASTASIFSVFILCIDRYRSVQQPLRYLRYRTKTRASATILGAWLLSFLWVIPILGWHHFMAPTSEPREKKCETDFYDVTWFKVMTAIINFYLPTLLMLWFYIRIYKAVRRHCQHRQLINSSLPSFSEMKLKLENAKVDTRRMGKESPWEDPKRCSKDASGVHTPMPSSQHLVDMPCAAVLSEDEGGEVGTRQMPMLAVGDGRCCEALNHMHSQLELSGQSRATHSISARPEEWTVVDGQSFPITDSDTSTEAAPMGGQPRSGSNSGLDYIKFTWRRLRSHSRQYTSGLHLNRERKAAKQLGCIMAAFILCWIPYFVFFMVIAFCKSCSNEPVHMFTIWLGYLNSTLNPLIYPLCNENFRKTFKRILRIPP

Take `CCOCCn1c(N2CCN(CC)CC2)nc2ccccc21`: 0.018 µM corresponded to half-maximal inhibition at Histamine H1 receptor (IC50). In other words, the double-digit nanomolar range. On to `CCOCCn1c(N2CCCN(C)CC2)nc2ccccc21` [EMEDASTINE], for which, at Histamine H1 receptor, the midpoint of inhibition, the IC50, lay at 0.0061 µM. The ED50 (commonly the dose that gives a 50% effect, or the effect in half of the subjects) in assay [1] is 0.0044 mg/kg. Taken in the same sequence, the figures for `CCOCCn1c(N2CCN(Cc3ccccc3)CC2)nc2ccccc21` were 0.027 µM and 0.039 mg/kg.

In the case of `CN1CCN(c2nc3ccccc3n2CCOc2ccccc2)CC1`, on Histamine H1 receptor, inhibition was half-maximal at 0.0069 µM (IC50). The same measure, in the same setting: the result for `CCCOCCn1c(N2CCN(C)CC2)nc2ccccc21` reads 0.02 µM.

For the molecule `COCCn1c(N2CCN(C)CC2)nc2ccccc21`, the IC50 (as a rule, the concentration that inhibits the measured activity by half) at Histamine H1 receptor was found to be 0.013 µM. Also, the ED50 in assay [1] was > 0.05 mg/kg. In the case of `CCOCCn1c(N2CCN(c3ccccc3)CC2)nc2ccccc21`, the IC50 on Histamine H1 receptor was > 10 µM.

Take `CN1CCCN(c2nc3ccccc3n2CCOc2ccccc2)CC1`: inhibition on Histamine H1 receptor was half-maximal at 0.0091 µM (IC50).

At Histamine H1 receptor, `CCCN1CCN(c2nc3ccccc3n2CCOCC)CC1` registered an IC50 of 0.016 µM. Moreover, the ED50 in assay [1] is 0.021 mg/kg. As for `CCCn1c(N2CCN(C)CC2)nc2ccccc21`, at Histamine H1 receptor, it took 0.38 µM to reach half-maximal inhibition (IC50).

Regarding `CCCCOCCn1c(N2CCCN(C)CC2)nc2ccccc21`, half-maximal inhibition against Histamine H1 receptor (IC50) was put at 0.01 µM. The ED50 in assay [1] was > 0.1 mg/kg.

`CCCOCn1c(N2CCN(C)CC2)nc2ccccc21` displayed an IC50 at Histamine H1 receptor of 0.018 µM. Also, in assay [1], the ED50 was > 0.1 mg/kg. `CCOCCn1c(N2CCNCC2)nc2ccccc21` came in with an IC50 against Histamine H1 receptor of 0.011 µM. Same read-out and setting: the result for `CCOCCn1c(N2CCN(C=O)CC2)nc2ccccc21` reads > 3 µM. Molecule `CCSCCn1c(N2CCN(C)CC2)nc2ccccc21` gave an IC50 at Histamine H1 receptor of 0.019 µM. In assay [1], this molecule yielded an ED50 of 0.28 mg/kg.

In turn, `C=CCOCCn1c(N2CCN(C)CC2)nc2ccccc21` gave an IC50 on Histamine H1 receptor of 0.017 µM. At Histamine H1 receptor, `CCCCN1CCCN(c2nc3ccccc3n2CCOCC)CC1` had an IC50 of 0.0084 µM. Also, the ED50 in assay [1] was 0.12 mg/kg.

Consider `CCCC(C)n1c(N2CCN(C)CC2)nc2ccccc21` (configuration not stated), for which the IC50 at Histamine H1 receptor was determined as 1.4 µM.

On to `CN1CCN(c2nc3ccccc3n2CCc2ccccc2)CC1`, for which half-maximal inhibition against Histamine H1 receptor (IC50) required 0.24 µM. In turn, `CCCN1CCCN(c2nc3ccccc3n2CCOCC)CC1` displayed a 50% inhibitory concentration (IC50) against Histamine H1 receptor of 0.0084 µM. Besides, the 50% effective dose (ED50) in assay [1] is > 0.1 mg/kg. Regarding `CCCC(C)Cn1c(N2CCN(C)CC2)nc2ccccc21` (configuration not stated), half-maximal inhibition against Histamine H1 receptor (IC50) was put at 1.5 µM.

Consider `CCCSCn1c(N2CCN(C)CC2)nc2ccccc21`, for which, on Histamine H1 receptor, the concentration for half-maximal inhibition (IC50) was found to be 0.068 µM.

At Histamine H1 receptor, `CCCCCN1CCN(c2nc3ccccc3n2CCOCC)CC1` registered a half-inhibitory concentration (IC50) of 0.03 µM. In assay [1], the ED50 was > 0.1 mg/kg. `CN1CCN(c2nc3ccccc3[nH]2)CC1`: the IC50 against Histamine H1 receptor was > 3 µM. The same measure, in the same setting: under `CN1CCN(c2nc3ccccc3n2C)CC1` stands 0.32 µM. In turn, `CCCCOCCn1c(N2CCN(C)CC2)nc2ccccc21` had an IC50 on Histamine H1 receptor of 0.038 µM. In addition, in assay [1], the ED50 is > 0.1 mg/kg. Take `CN1CCN(c2nc3ccccc3n2CCO)CC1`: the IC50 at Histamine H1 receptor is 0.41 µM. On the same count and under the same terms, the result for `C#CCOCCn1c(N2CCCN(C)CC2)nc2ccccc21` reads 0.0099 µM; that for `CCCCCCCCCCn1c(N2CCN(C)CC2)nc2ccccc21`, 4.2 µM. On Histamine H1 receptor, `CCOCCn1c(N2CCN(CCc3ccccc3)CC2)nc2ccccc21` came in with an IC50 of 0.031 µM. In assay [1], the ED50 was > 0.1 mg/kg. Molecule `CCSCCCn1c(N2CCN(C)CC2)nc2ccccc21` gave an IC50 at Histamine H1 receptor of 0.53 µM. At Histamine H1 receptor, `CCCCCN1CCCN(c2nc3ccccc3n2CCOCC)CC1` returned an IC50 of 0.0074 µM. Besides, the ED50 in assay [1] was > 0.05 mg/kg. The like results for `CN1CCN(c2nc3ccccc3n2CCOCc2ccccc2)CC1` were, in that order, 0.43 µM and > 0.1 mg/kg. Molecule `CCCCCCCn1c(N2CCN(C)CC2)nc2ccccc21` returned an IC50 against Histamine H1 receptor of 0.15 µM. `C=COCCn1c(N2CCN(C)CC2)nc2ccccc21` gave an IC50 at Histamine H1 receptor of 0.01 µM. The molecule also came in with an ED50 in assay [1] of 0.023 mg/kg. Taken in the same sequence, the figures for `CN1CCN(c2nc3ccccc3n2CCOCCO)CC1` were 0.042 µM and 0.051 mg/kg. Taken in the same sequence, the figures for `CCCCN1CCN(c2nc3ccccc3n2CCOCC)CC1` were 0.015 µM and > 0.1 mg/kg. Molecule `COCCCn1c(N2CCN(C)CC2)nc2ccccc21` displayed a half-inhibitory concentration (IC50) against Histamine H1 receptor of 0.86 µM. Besides, the 50% effective dose (ED50) in assay [1] was > 0.1 mg/kg. The molecule `C=CCOCCn1c(N2CCCN(C)CC2)nc2ccccc21` had an IC50 on Histamine H1 receptor of 0.01 µM. On Histamine H1 receptor, `CN1CCN(c2nc3ccccc3n2Cc2ccccc2)CC1` yielded an IC50 of 0.017 µM. For the same molecule, the ED50 in assay [1] was > 0.05 mg/kg.

`CCCOCCn1c(N2CCCN(C)CC2)nc2ccccc21`: 0.016 µM corresponded to half-maximal inhibition against Histamine H1 receptor (IC50). `CCCCCCn1c(N2CCN(C)CC2)nc2ccccc21` returned an IC50 on Histamine H1 receptor of 0.026 µM. On the same count and under the same terms, under `CCCCn1c(N2CCN(C)CC2)nc2ccccc21` stands 0.05 µM; under `CCOCCn1c(N2CCN(C(c3ccccc3)c3ccccc3)CC2)nc2ccccc21`, > 3 µM; under `CC(C)CCn1c(N2CCN(C)CC2)nc2ccccc21`, 1.4 µM.

The molecule `CN1CCN(c2nc3ccccc3n2-c2ccccc2)CC1` showed an IC50 on Histamine H1 receptor of 0.76 µM. On Histamine H1 receptor, `CCOCCn1c(N2CCCN(CC)CC2)nc2ccccc21` gave an IC50 of 0.016 µM. In assay [1], this molecule gave a median effective dose (ED50) of 0.032 mg/kg.

Molecule `C#CCOCCn1c(N2CCN(C)CC2)nc2ccccc21` yielded an IC50 at Histamine H1 receptor of 0.012 µM. For `CCOCCn1c(N2CCCN(Cc3ccccc3)CC2)nc2ccccc21`, the IC50 against Histamine H1 receptor is 0.015 µM. The ED50 in assay [1] was > 0.1 mg/kg. In the case of `CCCCCCN1CCN(c2nc3ccccc3n2CCOCC)CC1`, the IC50 on Histamine H1 receptor is 0.0086 µM. For the same molecule, in assay [1], the ED50 is > 0.1 mg/kg. The like results for `CCCCCn1c(N2CCN(C)CC2)nc2ccccc21` were, in that order, 0.019 µM and 0.19 mg/kg. Taken in the same sequence, the figures for `CCOCCn1c(N2CCCNCC2)nc2ccccc21` were 0.025 µM and 0.041 mg/kg.

`CCOCCn1c(N2CCN(C)CC2)nc2ccccc21`: at Histamine H1 receptor, the IC50 stood at 0.01 µM.
